For test [1], the target named is T1, Dihydroorotate dehydrogenase (fumarate) (Leishmania major, UniProt Q4QEW7).
T1 sequence (Q4QEW7 whole entry): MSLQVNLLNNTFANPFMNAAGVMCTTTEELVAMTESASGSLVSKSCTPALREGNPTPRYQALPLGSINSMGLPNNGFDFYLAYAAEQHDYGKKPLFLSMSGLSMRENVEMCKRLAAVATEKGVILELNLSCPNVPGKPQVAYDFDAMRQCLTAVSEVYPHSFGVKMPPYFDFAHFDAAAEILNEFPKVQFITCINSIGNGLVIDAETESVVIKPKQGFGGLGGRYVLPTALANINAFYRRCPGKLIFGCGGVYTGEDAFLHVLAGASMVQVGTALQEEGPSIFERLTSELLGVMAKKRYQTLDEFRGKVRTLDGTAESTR
The experiment in a line: Inhibition of recombinant oligo-histidine-tagged Leishmania major DHODH expressed in Escherichia coli BL21(DE3) cells using DHO as substrate measured after 60 secs. The following applies: read-out: IC50.

A further test concerns Leishmania braziliensis. The test can be described thus: Antileishmanial activity against Leishmania braziliensis H3227 MHOM/BR/94/H-3227 promastigotes after 72 hrs by MTT assay. It counts as functional, organism-based. The following applies: H3227 MHOM/BR/94/H-3227, 72 h.
In test [2] the test system is Leishmania amazonensis. The test can be described thus: Antileishmanial activity against Leishmania amazonensis promastigotes. It counts as functional, organism-based.
Test [3] has as its system Leishmania donovani. The experiment in a line: Antileishmanial activity against Leishmania donovani MHOM/ET/67/L82 amastigotes after 72 hrs by Alamar Blue assay. The class given is functional, organism-based. The following applies: MHOM/ET/67/L82, 72 h.
Test [4] deals with Trypanosoma cruzi. The test can be described thus: Antitrypanosomal activity against Trypanosoma cruzi Tulahuen C2C4 trypomastigotes infected in rat skeletal myoblasts L-6 cells after 96 hrs by CPRG/Nonidet reagent based spectrophotometric method. It counts as functional, organism-based. The settings on record: Tulahuen C2C4, L6, 96 h.
The subject of test [5] is Trypanosoma brucei rhodesiense. The test can be described thus: Antitrypanosomal activity against Trypanosoma brucei rhodesiense STIB 900 trypomastigotes after 72 hrs by Alamar Blue assay. The class given is functional, organism-based. The following applies: STIB 900, 72 h.
The subject of test [6] is Leishmania amazonensis. The experiment in a line: Antileishmanial activity against Leishmania amazonensis MHOM/BR/77/LTB 0016 promastigotes after 72 hrs by MTT assay. It counts as functional, organism-based. The following applies: MHOM/BR/77/LTB 0016, 72 h.
In test [7] the test system is Leishmania amazonensis. The test can be described thus: Antileishmanial activity against Leishmania amazonensis MHOM/BR/77/LTB 0016 amastigotes infected in mouse peritoneal macrophages after 72 hrs by staining-based assay. It counts as functional, organism-based. The settings on record: MHOM/BR/77/LTB 0016, 72 h.
For a further test, the system named is Trypanosoma brucei. The experiment in a line: Antitrypanosomal activity against Trypanosoma brucei TC221 trypomastigotes after 24 hrs by Alamar Blue assay. The following applies: TC221, 24 h. The class given is functional, organism-based.
The next test relates to Trypanosoma congolense. The test can be described thus: Antitrypanosomal activity against Trypanosoma congolense STIB 910 trypomastigotes after 24 hrs by Alamar Blue assay. It counts as functional, organism-based. The settings on record: STIB 910, 24 h.
Test [8] deals with Dihydroorotate dehydrogenase (quinone), mitochondrial (Homo sapiens) (UniProt Q02127). The test can be described thus: Inhibition of human DHODH at 100 uM.
The target of test [9] is T2, Dihydroorotate dehydrogenase (fumarate) (Leishmania major) (UniProt Q4QEW7).
T2 sequence (whole entry): T1 sequence (Q4QEW7 whole entry)
The test can be described thus: Inhibition of recombinant oligo-histidine-tagged Leishmania major DHODH expressed in Escherichia coli BL21(DE3) cells at 150 uM using DHO as substrate measured after 60 secs.

Test [10] has as its target T2, Dihydroorotate dehydrogenase (fumarate) (Leishmania major). The test can be described thus: Inhibition of recombinant oligo-histidine-tagged Leishmania major DHODH expressed in Escherichia coli BL21(DE3) cells at 100 uM using DHO as substrate measured after 60 secs.
In test [11] the test system is Leishmania amazonensis. The experiment in a line: Antileishmanial activity against Leishmania amazonensis WHOM/BR/75/Josefa promastigotes after 72 hrs by Neubauer chamber method. The class given is functional, organism-based.
Test [12] has as its system Leishmania amazonensis. The test can be described thus: Antileishmanial activity against Leishmania amazonensis WHOM/BR/75/Josefa amastigotes after 72 hrs by Neubauer chamber method. The class given is functional, organism-based.
Test [13] has as its system Leishmania amazonensis. The experiment in a line: Antileishmanial activity against Leishmania amazonensis IFLA/BR/1967/PH-8 promastigotes after 48 hrs by MTT assay. The class given is functional, organism-based. The following applies: IFLA/BR/1967/PH-8, 48 h.
For test [14], the target named is T2, Dihydroorotate dehydrogenase (fumarate) (Leishmania major). The test can be described thus: Binding affinity to Leishmania major DHODH assessed as change in melting temperature at 100 uM by differential scanning fluorimetry-based ThermoFMN assay.
The target is the same in test [15]. The test can be described thus: Binding affinity to Leishmania major DHODH assessed as change in melting temperature at 500 uM by differential scanning fluorimetry-based ThermoFMN assay.
The target is the same in test [16]. The experiment in a line: Binding affinity to Leishmania major DHODH assessed as change in melting temperature at 1000 uM by differential scanning fluorimetry-based ThermoFMN assay.
Test [17] has the same target. The experiment in a line: Binding affinity to Leishmania major DHODH assessed as change in melting temperature at 100 uM by SYPRO orange dye-based differential scanning fluorimetry.
The target is the same in test [18]. The experiment in a line: Binding affinity to Leishmania major DHODH assessed as change in melting temperature at 500 uM by SYPRO orange dye-based differential scanning fluorimetry.
The target is the same in test [19]. The test can be described thus: Binding affinity to Leishmania major DHODH assessed as change in melting temperature at 1000 uM by SYPRO orange dye-based differential scanning fluorimetry.
The subject of test [20] is Trypanosoma brucei rhodesiense. The test can be described thus: Antitrypanosomal activity against Trypanosoma brucei rhodesiense STIB900 trypomastigotes. The class given is functional, organism-based.
In test [21] the test system is Leishmania donovani. The experiment in a line: Antileishmanial activity against Leishmania donovani amastigotes. It counts as functional, organism-based.
For test [22], the system named is Trypanosoma cruzi. The test can be described thus: Antitrypanosomal activity against Trypanosoma cruzi amastigotes. It counts as functional, organism-based.
A further test concerns Leishmania infantum. The experiment in a line: Antileishmanial activity against Leishmania infantum MHOM/BR/1972/LD promastigotes. It counts as functional, organism-based.
Test [23] deals with Leishmania donovani. The experiment in a line: Antileishmanial activity against Leishmania donovani MHOM/ET/67/L82 axenic amastigotes after 72 hrs by resazurin dye-based fluorescence assay. The following applies: MHOM/ET/67/L82, 72 h. The class given is functional, organism-based.
For test [24], the system named is Trypanosoma brucei rhodesiense. The test can be described thus: Antitrypanosomal activity against Trypanosoma brucei rhodesiense STIB 900 trypomastigotes after 72 hrs by resazurin dye-based fluorescence assay. The class given is functional, organism-based. The settings on record: STIB 900, 72 h.
Test [25] concerns Trypanosoma cruzi. The test can be described thus: Antitrypanosomal activity against Trypanosoma cruzi Tulahuen trypomastigotes after 96 hrs by CPRG/Nonidet reagent based spectrophotometric method. The class given is functional, organism-based.

Experimental findings from ChEMBL document CHEMBL4261582, “Natural products as inhibitors of Leishmania major dihydroorotate dehydrogenase” (Eur J Med Chem, 2018) are described below.

Chain of Dihydroorotate dehydrogenase (quinone), mitochondrial (Homo sapiens) (Q02127 whole entry): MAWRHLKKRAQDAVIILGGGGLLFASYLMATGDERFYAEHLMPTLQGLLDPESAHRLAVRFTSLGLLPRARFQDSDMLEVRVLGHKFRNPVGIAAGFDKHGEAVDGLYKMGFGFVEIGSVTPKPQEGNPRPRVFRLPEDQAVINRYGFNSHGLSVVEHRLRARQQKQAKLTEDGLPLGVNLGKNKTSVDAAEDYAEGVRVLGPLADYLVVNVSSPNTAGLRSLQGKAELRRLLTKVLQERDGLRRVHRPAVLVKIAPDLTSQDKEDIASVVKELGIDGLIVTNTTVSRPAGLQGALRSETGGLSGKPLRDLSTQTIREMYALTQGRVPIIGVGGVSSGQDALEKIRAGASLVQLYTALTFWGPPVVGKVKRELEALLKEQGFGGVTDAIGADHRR

As for `C=C1C(=O)O[C@@H]2/C=C(/C)C(=O)/C=C/[C@](C)(O)C[C@@H](OC(=O)C(C)C)[C@@H]12` [TAGITININ C], the IC50 was found to be 426 µM in test [1] and 9.2 µM with Leishmania braziliensis.
As for `O=C(O)/C=C/c1ccccc1` [CINNAMIC ACID], the IC50 was determined as 392 µM in test [1]; 15.5 µM in the test on Leishmania amazonensis [2]; 37.8 µM with Leishmania donovani [3]; 203 µM in the test with Trypanosoma cruzi [4]; 223 µM in [5].
Take `CN1[C@@H]2C[C@H](OC(=O)[C@H](CO)c3ccccc3)C[C@H]1[C@@H]1O[C@@H]12`: the IC50 in [1] is 795 µM; with Leishmania amazonensis [6] it was more than 100 µM; in the test on Leishmania amazonensis [7] it was more than 25 µM; in the test on Trypanosoma brucei, more than 100 µM.
Consider `CC[C@H]1CN2CCc3cc(OC)c(OC)cc3[C@@H]2C[C@@H]1C[C@H]1NCCc2cc(OC)c(OC)cc21` [EMETINE], for which the figures for the IC50 (in the test on Trypanosoma congolense; in [1]; in the test on Trypanosoma brucei) were 0.43 µM, 1070 µM and 0.04 µM, respectively.
As for `C=C1C(=O)O[C@@H]2[C@H]3C(C)=CC(=O)C3=C(C)C[C@@H](OC(=O)/C(C)=C/C)[C@@H]12`, the values for the inhibition in test [8] and in [9] were 3% and 64%, respectively. The IC50 in [1] worked out at 26.8 µM.
In the case of `C=C1C[C@@]23CC[C@H]4[C@@](C)(CCC[C@@]4(C)C(=O)O)[C@@H]2CC[C@@H]1C3` [KAURENOIC ACID], the inhibition in test [8] is 28%; in test [10] it was 40%. Besides, the IC50 in [1] is 31.5 µM; in the test with Leishmania amazonensis [11], 93.3 µM; with Leishmania amazonensis [12], 11.7 µM.
On to `Oc1cc(O)c2c(c1)O[C@H](c1ccc(O)c(O)c1)[C@@H](O)C2` [CIANIDANOL], for which the inhibition in [8] stood at 38%; in test [10], 52%. For the same molecule, the IC50 in test [1] turned out to be 98.3 µM; in the test with Leishmania donovani [3], 103 µM; in the test on Trypanosoma cruzi [4], 310 µM; in [5], 50 µM; in the test with Leishmania amazonensis [13] it was 153 µM.
For the molecule `C=C1C(=O)O[C@@H]2C[C@H](C)[C@@]3(O)C[C@H](O)[C@@](C)(C[C@@H](OC(=O)C(C)C)[C@@H]12)O3` [TAGITININ A], the figures for the IC50 (in test [1]; in the test with Leishmania braziliensis) were 796 µM and 20.4 µM, respectively. Further, the ΔTm in test [14] is -0.26 °C; in test [15], -0.32 °C; in [16], -0.52 °C; in [17], -0.07 °C; in test [18], -0.06 °C; in test [19] it was -0.19 °C.
For the molecule `C=C1C(=O)O[C@@H]2/C=C(/CO)C3=CC(=O)[C@@](C)(C[C@@H](OC(=O)/C(C)=C\C)[C@@H]12)O3`, the IC50 in [1] is 653 µM; in test [20] it was 0.07 µM; in the test with Leishmania donovani [21], 5.14 µM; with Trypanosoma cruzi [22] it was 1.75 µM; with Leishmania infantum it was 28 µM.
Regarding `C=C1C(=O)O[C@@H]2/C=C(/C)C(=O)[C@@H]3O[C@H]3[C@](C)(O)C[C@@H](OC(=O)C(C)C)[C@@H]12`, the inhibition in test [8] was found to be 12%; in test [10], 42%. Moreover, the IC50 in test [1] was 103 µM; with Leishmania braziliensis, 6 µM.
On to `C=C1C(=O)O[C@@H]2/C=C(\CO)CC/C=C(\C)C[C@H](OC(=O)C(=C)[C@@H](O)CO)[C@@H]12`, for which the IC50 in test [1] was 361 µM; in the test on Leishmania donovani [23], 15.2 µM; in [24] it was 1.3 µM; in the test with Trypanosoma cruzi [25], 16.8 µM.
